In the experiment the test system is P388 leukemia ip, CD2F1 mice, survival T/C. Nature of the experiment: NCI In Vivo Anticancer Drug Screen. Data for tumor model P388 Leukemia (intraperitoneal) in CD2F1 (CDF1) mice. As to conditions: endpoint: median survival time, higher = longer survival. The procedure, abridged: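 Mice carrying the transplanted tumor received test compound or vehicle. Survival was recorded in each group, and the value is the treated-group measurement divided by that of the vehicle-treated control group.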

Setting [1] is: dose: 100.0 mg/kg/injection, schedule: Q01DX009 (ip), vehicle: saline.
Where [2] appears, read: dose: 200.0 mg/kg/injection, schedule: Q01DX009 (ip), vehicle: saline.
The mark [3] stands for this setting: dose: 50.0 mg/kg/injection, schedule: Q01DX005 (ip), vehicle: Klucel (hydroxypropylcellulose) (HPC).
[4] abbreviates: dose: 100.0 mg/kg/injection, schedule: Q01DX009 (ip), vehicle: saline with Tween-80.
The mark [5] stands for this setting: dose: 100.0 mg/kg/injection, schedule: Q04DX003 (ip), vehicle: saline with Tween-80.
Where [6] appears, read: dose: 60.0 mg/kg/injection, schedule: Q01DX005 (ip), vehicle: saline with Tween-80.
[7] abbreviates: dose: 120.0 mg/kg/injection, schedule: Q01DX005 (ip), vehicle: saline with Tween-80.
Where [8] appears, read: dose: 240.0 mg/kg/injection, schedule: Q01DX005 (ip), vehicle: saline with Tween-80.
[9] abbreviates: dose: 60.0 mg/kg/injection, schedule: Q01DX005 (ip), vehicle: Klucel (hydroxypropylcellulose) (HPC).
[10] abbreviates: dose: 120.0 mg/kg/injection, schedule: Q01DX005 (ip), vehicle: Klucel (hydroxypropylcellulose) (HPC).
Where [11] appears, read: dose: 240.0 mg/kg/injection, schedule: Q01DX005 (ip), vehicle: Klucel (hydroxypropylcellulose) (HPC).
Setting [12] is: dose: 25.0 mg/kg/injection, schedule: Q01DX009 (ip), vehicle: saline with Tween-80.
Where [13] appears, read: dose: 50.0 mg/kg/injection, schedule: Q01DX009 (ip), vehicle: saline with Tween-80.

For 23 compounds, T/C results are on record in PubChem BioAssay AID330 (DTP/NCI, 2004).

Where “and” joins values, the source holds several entries; their conditions need not be identical. Equal values may be shown once. Toxic doses and inconclusive results are not listed.

On to `CC(=O)c1ccc(OCc2ccccc2)cc1OCc1ccccc1`, for which the T/C is 97 % of control (dose: 50.0 mg/kg/injection, schedule: Q01DX009 (ip), vehicle: saline); 100 % of control under setting [1]; 98 % of control under setting [2].

Turning to `COc1c(C)cc(Cc2ccc3c(c2)OCO3)cc1C`, the T/C runs as follows: under setting [3], 109 % of control; (dose: 100.0 mg/kg/injection, schedule: Q01DX005 (ip), vehicle: Klucel (hydroxypropylcellulose) (HPC)) 109 % of control; (dose: 200.0 mg/kg/injection, schedule: Q01DX005 (ip), vehicle: Klucel (hydroxypropylcellulose) (HPC)) 113 % of control.

For the compound `Nc1nc(=S)c2[nH]c(=S)[nH]c2[nH]1`, the T/C was 118 % of control (dose: 25.0 mg/kg/injection, schedule: Q04DX003 (ip), vehicle: saline with Tween-80); 118 % of control (dose: 50.0 mg/kg/injection, schedule: Q04DX003 (ip), vehicle: saline with Tween-80); 118 % of control under setting [4]; 118 % of control under setting [5]; 150 % of control (dose: 264.0 mg/kg/injection, schedule: Q04DX003 (ip), vehicle: saline with Tween-80); 113 % of control (dose: 400.0 mg/kg/injection, schedule: Q01DX009 (ip), vehicle: saline with Tween-80). Besides, for the setting “dose: 600.0 mg/kg/injection, schedule: Q04DX003 (ip), vehicle: saline with Tween-80”, the T/C is 150 % of control.

In the case of `CC1(C)CCC2(C(=O)OC3OC(CO)C(O)C(O)C3O)CCC3(C)C(=CCC4C5(C)CCC(OC6OC(CO)C(O)C(OC7OC(CO)C(O)C(O)C7O)C6O)C(C)(C)C5CCC43C)C2C1` (configuration not stated), the T/C (dose: 6.25 mg/kg/injection, schedule: Q01DX005 (ip), vehicle: Klucel (hydroxypropylcellulose) (HPC)) is 102 % of control; the T/C (dose: 12.5 mg/kg/injection, schedule: Q01DX005 (ip), vehicle: Klucel (hydroxypropylcellulose) (HPC)) was 98 % of control; the T/C (dose: 25.0 mg/kg/injection, schedule: Q01DX005 (ip), vehicle: Klucel (hydroxypropylcellulose) (HPC)) was 116 % of control; the T/C under setting [3] is 105 % of control.

Consider `COc1cccc(C2c3cc4c(cc3OC(C)(N3CCCC3)C2C)OCO4)c1O` (configuration not stated), for which the T/C under setting [6] is 99 % of control, the T/C under setting [7] is 102 % of control and the T/C under setting [8] is 89 % of control.

Take `N=c1c2ccccc2nc2n1CCCCCCC2`: the T/C (dose: 25.0 mg/kg/injection, schedule: Q04DX003 (ip), vehicle: Klucel (hydroxypropylcellulose) (HPC)) is 103 % of control and the T/C (dose: 50.0 mg/kg/injection, schedule: Q04DX003 (ip), vehicle: Klucel (hydroxypropylcellulose) (HPC)) was 91 % of control.

`c1ccc(Sc2c(-c3ccccc3)c(-c3ccccc3)c3n2CCC3)cc1`: the T/C reads like this: under setting [9], 86 % of control; under setting [10], 86 % of control.

For the compound `COC(=O)N1CCCc2ccc3c(OC)c(OC)cc(c3c2)CC1`, the T/C is 100 % of control under setting [9], 100 % of control under setting [10] and 88 % of control under setting [11].

For `CCOC(=O)/C=C(\C)C(F)(F)F`, the T/C is 95 % of control (dose: 15.0 mg/kg/injection, schedule: Q01DX005 (ip), vehicle: saline with Tween-80); 100 % of control and 103 % of control (dose: 30.0 mg/kg/injection, schedule: Q01DX005 (ip), vehicle: saline with Tween-80); 98 % of control and 104 % of control and 94 % of control under setting [6]; 100 % of control and 101 % of control under setting [7]; 106 % of control and 111 % of control under setting [8].

Regarding `C=CCSc1nc(-c2ccc(Cl)cc2)c(C#N)c(=O)[nH]1`, the T/C reads like this: (dose: 100.0 mg/kg/injection, schedule: Q01DX001 (ip), vehicle: saline with Tween-80) 100 % of control; (dose: 200.0 mg/kg/injection, schedule: Q01DX001 (ip), vehicle: saline with Tween-80) 97 % of control; (dose: 400.0 mg/kg/injection, schedule: Q01DX001 (ip), vehicle: saline with Tween-80) 92 % of control.

Regarding `C[n+]1cccc(/C=N/O)c1`, the T/C (dose: 100.0 mg/kg/injection, schedule: Q04DX002 (ip), vehicle: saline) was 100 % of control and the T/C (dose: 200.0 mg/kg/injection, schedule: Q04DX002 (ip), vehicle: saline) was 100 % of control.

As for `Cc1cnc(F)nc1F`, the T/C was 94 % of control (dose: 50.0 mg/kg/injection, schedule: Q01DX005 (ip), vehicle: saline) and 97 % of control (dose: 100.0 mg/kg/injection, schedule: Q01DX005 (ip), vehicle: saline).

Regarding `O=C1C=C(Nc2ccc(Br)cc2)C(Nc2ccc(Br)cc2)=CC1=O`, the T/C runs as follows: (dose: 4.68 mg/kg/injection, schedule: Q01DX009 (ip), vehicle: saline with Tween-80) 97 % of control; (dose: 9.37 mg/kg/injection, schedule: Q01DX009 (ip), vehicle: saline with Tween-80) 105 % of control; (dose: 18.75 mg/kg/injection, schedule: Q01DX005 (ip), vehicle: saline with Tween-80) 100 % of control; (dose: 18.75 mg/kg/injection, schedule: Q01DX009 (ip), vehicle: saline with Tween-80) 106 % of control; (dose: 37.5 mg/kg/injection, schedule: Q01DX005 (ip), vehicle: saline with Tween-80) 92 % of control.

Regarding `CC1CC1(C1C=CCCC1)C1C=CCCC1` (configuration not stated), the T/C was 100 % of control (dose: 50.0 mg/kg/injection, schedule: Q01DX005 (ip), vehicle: saline with Tween-80); 100 % of control (dose: 100.0 mg/kg/injection, schedule: Q01DX005 (ip), vehicle: saline with Tween-80); 108 % of control (dose: 200.0 mg/kg/injection, schedule: Q01DX005 (ip), vehicle: saline with Tween-80).

On to `CC1SC2(C(=O)Nc3ccc(Br)cc32)N(c2ccc(Cl)cc2)C1=O` (configuration not stated), for which the T/C was 97 % of control under setting [6], 109 % of control under setting [7] and 100 % of control under setting [8].

Regarding `COC(=O)C1=C(C(=O)OC)SC(=C2C3=C(SC(C(=O)OC)=C(C(=O)OC)S3)c3ccccc32)S1`, the T/C was 96 % of control (dose: 30.0 mg/kg/injection, schedule: Q01DX005 (ip), vehicle: Klucel (hydroxypropylcellulose) (HPC)); 87 % of control and 91 % of control under setting [9]; 89 % of control under setting [10]; 86 % of control under setting [11].

Take `O=[N+]([O-])c1ccc(-c2nc(/C=N/N3CCOCC3)cs2)s1`: the T/C was 110 % of control under setting [12], 115 % of control under setting [13] and 114 % of control under setting [4].

`CC(=O)C1(C(C)=O)OC2c3ccccc3C=CN2C=C1C=O` (configuration not stated): the T/C is 110 % of control under setting [6], 106 % of control under setting [7] and 106 % of control under setting [8].

For `O=C1C=C(NC(=O)C(F)(F)F)C(=O)c2c1[nH]c(=O)[nH]c2=O`, the T/C by setting is: (dose: 6.25 mg/kg/injection, schedule: Q01DX005 (ip), vehicle: DMSO) 109 % of control; (dose: 12.5 mg/kg/injection, schedule: Q01DX005 (ip), vehicle: DMSO) 103 % of control; (dose: 25.0 mg/kg/injection, schedule: Q01DX005 (ip), vehicle: DMSO) 103 % of control; (dose: 50.0 mg/kg/injection, schedule: Q01DX005 (ip), vehicle: DMSO) 110 % of control; (dose: 50.0 mg/kg/injection, schedule: Q01DX005 (ip), vehicle: other) 98 % of control; (dose: 100.0 mg/kg/injection, schedule: Q01DX005 (ip), vehicle: other) 104 % of control. In addition, the T/C (dose: 200.0 mg/kg/injection, schedule: Q01DX005 (ip), vehicle: other) is 101 % of control.

With `COC(=O)CC(=O)C(C)SC` (configuration not stated), the T/C was 100 % of control under setting [12], 109 % of control under setting [13] and 97 % of control under setting [4].

`O=c1cc(CBr)c2ccccc2[nH]1`: the T/C runs as follows: (dose: 6.25 mg/kg/injection, schedule: Q01DX009 (ip), vehicle: saline with Tween-80) 95 % of control; (dose: 12.5 mg/kg/injection, schedule: Q01DX009 (ip), vehicle: saline with Tween-80) 95 % of control; under setting [12], 86 % of control.

With `O=[N+]([O-])/C=C/c1cc2c(cc1Br)OCO2`, the T/C under setting [5] was 113 % of control and the T/C (dose: 200.0 mg/kg/injection, schedule: Q04DX003 (ip), vehicle: saline with Tween-80) is 113 % of control.

For `CC(NCCO)C(O)c1ccccc1` (configuration not stated), the T/C under setting [1] was 90 % of control and the T/C under setting [2] was 98 % of control.
